Reference: PubChem BioAssay AID1259407 (Chemical Carcinogenesis Research Information System (CCRIS), 2018)
Calls of active or inactive are those of the source. The rule behind the calls is not given here.

Tested on: CCRIS mutagenicity, Ames/micronucleus/aberration tests
Test: CCRIS mutagenicity studies
[1] = Test System: AMES SALMONELLA TYPHIMURIUM, Strain/Indicator: TA98, Metabolic Activation: NONE, Method: PREINCUBATION
[2] = Test System: AMES SALMONELLA TYPHIMURIUM, Strain/Indicator: TA100, Metabolic Activation: NONE, Method: PREINCUBATION
[3] = Test System: AMES SALMONELLA TYPHIMURIUM, Strain/Indicator: TA1535, Metabolic Activation: NONE, Method: PREINCUBATION
[4] = Test System: AMES SALMONELLA TYPHIMURIUM, Strain/Indicator: TA1537, Metabolic Activation: NONE, Method: PREINCUBATION

Fc1c(F)c(Cl)c(F)c(Cl)c1F
mutagenic call [1]: inactive; negative | mutagenic call (Test System: AMES SALMONELLA TYPHIMURIUM, Strain/Indicator: TA98, Metabolic Activation: RAT, LIVER, S-9, AROCLOR 1254, Method: PREINCUBATION): inactive; negative | mutagenic call [2]: inactive; negative | mutagenic call (Test System: AMES SALMONELLA TYPHIMURIUM, Strain/Indicator: TA100, Metabolic Activation: RAT, LIVER, S-9, AROCLOR 1254, Method: PREINCUBATION): inactive; negative | mutagenic call [3]: inactive; negative | mutagenic call (Test System: AMES SALMONELLA TYPHIMURIUM, Strain/Indicator: TA1535, Metabolic Activation: RAT, LIVER, S-9, AROCLOR 1254, Method: PREINCUBATION): inactive; negative | mutagenic call [4]: inactive; negative | mutagenic call (Test System: AMES SALMONELLA TYPHIMURIUM, Strain/Indicator: TA1537, Metabolic Activation: RAT, LIVER, S-9, AROCLOR 1254, Method: PREINCUBATION): inactive; negative | mutagenic call (Test System: AMES SALMONELLA TYPHIMURIUM, Strain/Indicator: TA1538, Metabolic Activation: NONE, Method: PREINCUBATION): inactive; negative | mutagenic call (Test System: AMES SALMONELLA TYPHIMURIUM, Strain/Indicator: TA1538, Metabolic Activation: RAT, LIVER, S-9, AROCLOR 1254, Method: PREINCUBATION): inactive; negative | mutagenic call (Test System: CHINESE HAMSTER OVARY, Strain/Indicator: CHO-K1-BH4 (HGPRT)/6-THIOGUANINE, Metabolic Activation: NONE, Method: SUSPENSION/PLATE): inactive; negative | mutagenic call (Test System: CHINESE HAMSTER OVARY, Strain/Indicator: CHO-K1-BH4 (HGPRT)/6-THIOGUANINE, Metabolic Activation: RAT, LIVER, S-9, AROCLOR 1254, Method: SUSPENSION/PLATE): inactive; negative

Nc1ccc(I)cc1Cl
mutagenic call (End Point: In vitro chromosomal aberrations, Test System: Chinese hamster lung (CHL/IU) cells, Metabolic Activation: Rat, Liver, S9, Phenobarbital and 5,6-benzoflavone): active; positive (structural changes). weak response. | mutagenic call (Test System: Ames Salmonella typhimurium, Strain/Indicator: TA98, Metabolic Activation: None, Method: Preincubation): inactive; negative | mutagenic call (Test System: Ames Salmonella typhimurium, Strain/Indicator: TA98, Metabolic Activation: Rat, Liver, S9, Sodium phenobarbital and 5,6-benzoflavone (10%), Method: Preincubation): inactive; negative | mutagenic call (Test System: Ames Salmonella typhimurium, Strain/Indicator: TA100, Metabolic Activation: None, Method: Preincubation): inactive; negative | mutagenic call (Test System: Ames Salmonella typhimurium, Strain/Indicator: TA1535, Metabolic Activation: None, Method: Preincubation): inactive; negative | mutagenic call (Test System: Ames Salmonella typhimurium, Strain/Indicator: TA1535, Metabolic Activation: Rat, Liver, S9, Sodium phenobarbital and 5,6-benzoflavone (10%), Method: Preincubation): inactive; negative | mutagenic call (Test System: Ames Salmonella typhimurium, Strain/Indicator: TA1537, Metabolic Activation: None, Method: Preincubation): inactive; negative | mutagenic call (Test System: Ames Salmonella typhimurium, Strain/Indicator: TA1537, Metabolic Activation: Rat, Liver, S9, Sodium phenobarbital and 5,6-benzoflavone (10%), Method: Preincubation): inactive; negative | mutagenic call (Test System: E. coli, Strain/Indicator: WP2uvrA/pKM101, Metabolic Activation: None, Method: Preincubation): inactive; negative | mutagenic call (Test System: E. coli, Strain/Indicator: WP2uvrA/pKM101, Metabolic Activation: Rat, Liver, S9, Sodium phenobarbital and 5,6-benzoflavone (10%), Method: Preincubation): inactive; negative

COc1cccc2c1ccc1c(C(=O)O)cc3c(c12)OCO3
mutagenic call (Test System: AMES SALMONELLA TYPHIMURIUM, Strain/Indicator: D3052, Metabolic Activation: NONE, Method: STANDARD PLATE): inactive; negative | mutagenic call (Test System: AMES SALMONELLA TYPHIMURIUM, Strain/Indicator: D3052, Metabolic Activation: RAT, LIVER, S-9, PHENOBARBITAL, Method: STANDARD PLATE): inactive; negative | mutagenic call (Test System: AMES SALMONELLA TYPHIMURIUM, Strain/Indicator: G46, Metabolic Activation: NONE, Method: STANDARD PLATE): inactive; negative | mutagenic call (Test System: AMES SALMONELLA TYPHIMURIUM, Strain/Indicator: G46, Metabolic Activation: RAT, LIVER, S-9, PHENOBARBITAL, Method: STANDARD PLATE): inactive; negative | mutagenic call (Test System: AMES SALMONELLA TYPHIMURIUM, Strain/Indicator: TA98(NR), Metabolic Activation: NONE, Method: STANDARD PLATE): active; positive | mutagenic call (Test System: AMES SALMONELLA TYPHIMURIUM, Strain/Indicator: TA98, Metabolic Activation: RAT, LIVER, S-9, PHENOBARBITAL, Method: STANDARD PLATE): inactive; negative | mutagenic call (Test System: AMES SALMONELLA TYPHIMURIUM, Strain/Indicator: TA100(NR), Metabolic Activation: NONE, Method: STANDARD PLATE): active; positive | mutagenic call (Test System: AMES SALMONELLA TYPHIMURIUM, Strain/Indicator: TA100, Metabolic Activation: RAT, LIVER, S-9, PHENOBARBITAL, Method: STANDARD PLATE): inactive; negative | mutagenic call (Test System: AMES SALMONELLA TYPHIMURIUM, Strain/Indicator: TA102, Metabolic Activation: NONE, Method: STANDARD PLATE): active; positive | mutagenic call (Test System: AMES SALMONELLA TYPHIMURIUM, Strain/Indicator: TA1535, Metabolic Activation: NONE, Method: STANDARD PLATE): inactive; negative | mutagenic call (Test System: AMES SALMONELLA TYPHIMURIUM, Strain/Indicator: TA1535, Metabolic Activation: RAT, LIVER, S-9, PHENOBARBITAL, Method: STANDARD PLATE): inactive; negative | mutagenic call (Test System: AMES SALMONELLA TYPHIMURIUM, Strain/Indicator: TA1978, Metabolic Activation: NONE, Method: STANDARD PLATE): inactive; negative | mutagenic call (Test System: AMES SALMONELLA TYPHIMURIUM, Strain/Indicator: TA1978, Metabolic Activation: RAT, LIVER, S-9, PHENOBARBITAL, Method: STANDARD PLATE): inactive; negative | mutagenic call (Test System: AMES SALMONELLA TYPHIMURIUM, Strain/Indicator: TM677/8-AZAGUANINE, Metabolic Activation: NONE, Method: SUSPENSION/PLATE): active; positive | mutagenic call (Test System: AMES SALMONELLA TYPHIMURIUM, Strain/Indicator: YG1021, Metabolic Activation: NONE, Method: STANDARD PLATE): inactive; negative | mutagenic call (Test System: AMES SALMONELLA TYPHIMURIUM, Strain/Indicator: YG1026, Metabolic Activation: NONE, Method: STANDARD PLATE): inactive; negative | mutagenic call (Test System: CHINESE HAMSTER OVARY, Strain/Indicator: CHO-K1-BH4 (HGPRT), Metabolic Activation: NONE): active; positive

CC(C)CNC(=O)C=Cc1ccc([N+](=O)[O-])o1
mutagenic call [1]: active; positive

COc1cc(NS(C)(=O)=O)ccc1Nc1c2ccccc2nc2ccc(N=[N+]=[N-])cc12
mutagenic call (Test System: AMES SALMONELLA TYPHIMURIUM, Strain/Indicator: TA1537, Metabolic Activation: NONE, Method: STANDARD PLATE): active; positive

CC(=O)c1ccccc1
mutagenic call (Test System: AMES SALMONELLA TYPHIMURIUM, Strain/Indicator: TA97, Metabolic Activation: NONE, Method: PREINCUBATION): inactive; negative | mutagenic call (Test System: AMES SALMONELLA TYPHIMURIUM, Strain/Indicator: TA97, Metabolic Activation: RAT, LIVER, S-9, AROCLOR 1254, Method: PREINCUBATION): inactive; negative | mutagenic call [1]: inactive; negative | mutagenic call (Test System: AMES SALMONELLA TYPHIMURIUM, Strain/Indicator: TA98, Metabolic Activation: RAT LIVER S-9, PHENOBARBITAL AND BETA-NAPHTHOFLAVONE, Method: PREINCUBATION): inactive; negative | mutagenic call [2]: inactive; negative | mutagenic call (Test System: AMES SALMONELLA TYPHIMURIUM, Strain/Indicator: TA100, Metabolic Activation: RAT LIVER S-9, PHENOBARBITAL AND BETA-NAPHTHOFLAVONE, Method: PREINCUBATION): inactive; negative | mutagenic call (Test System: AMES SALMONELLA TYPHIMURIUM, Strain/Indicator: TA102, Metabolic Activation: NONE, Method: PREINCUBATION): inactive; negative | mutagenic call (Test System: AMES SALMONELLA TYPHIMURIUM, Strain/Indicator: TA102, Metabolic Activation: RAT, LIVER, S-9, AROCLOR 1254, Method: PREINCUBATION): inactive; negative | mutagenic call [3]: inactive; negative | mutagenic call (Test System: AMES SALMONELLA TYPHIMURIUM, Strain/Indicator: TA1535, Metabolic Activation: RAT LIVER S-9, PHENOBARBITAL AND BETA-NAPHTHOFLAVONE, Method: PREINCUBATION): inactive; negative | mutagenic call [4]: inactive; negative | mutagenic call (Test System: AMES SALMONELLA TYPHIMURIUM, Strain/Indicator: TA1537, Metabolic Activation: RAT LIVER S-9, PHENOBARBITAL AND BETA-NAPHTHOFLAVONE, Method: PREINCUBATION): inactive; negative | mutagenic call (Test System: E.COLI, Strain/Indicator: WP2UVRA/PKM101, Metabolic Activation: NONE, Method: PREINCUBATION): inactive; negative | mutagenic call (Test System: E.COLI, Strain/Indicator: WP2UVRA/PKM101, Metabolic Activation: RAT LIVER S-9, PHENOBARBITAL AND BETA-NAPHTHOFLAVONE, Method: PREINCUBATION): inactive; negative
